Source: patent US4102917A, “Substituted phenyl naphthalenesulfonic acids” (American Cyanamid Company, priority 1977, dated 1978)
Counter-ions that a name gives are not always drawn.

How the values were obtained:
complement system = conditions: literature; cited from earlier work
[1] = test system: hereditary angioneurotic edema; conditions: literature; cited from earlier work
human C1 = test: Test, Code 026 (C1 inhibitor); format: biochemical; conditions: activity in wells, two-fold serial dilution assay; higher well number indicates higher activity
Text: (§1) An active inhibitor protects C2 from C1 and C4; (ii) Test, Code 035 (C3-C9 inhibitor) -- This test determines the ability of the late components of human complement (C3-C9) to lyse EAC 142 in the presence of appropriate dilutions of the test compound. An active inhibitor protects EAC 142 from lysis by human C3-C9; (iii) Test, Code 036 (C-Shunt inhibitor) -- In this test human erythrocytes rendered fragile are lysed in autologous serum via the shunt pathway activated by cobra venom factor in the presence of appropriate dilutions of the test compound. Inhibition of the shunt pathway results in failure of lysis; (iv) Forssman Vasculitis Test -- Here, the well known complement dependent lesion, Forssman vasculitis, is produced in guinea pigs by intradermal injection of rabbit anti-Forssman antiserum. […]

[2] = test system: late components of human complement (C3-C9); test: Test, Code 035 (C3-C9 inhibitor), lysis of EAC 142; format: cell-based; conditions: activity in wells, two-fold serial dilution assay; higher well number indicates higher activity; N=Negative
Text: as §1

shunt pathway = test: Test, Code 036 (C-Shunt inhibitor), lysis of human erythrocytes via shunt pathway activated by cobra venom factor; format: cell-based; conditions: activity in wells, two-fold serial dilution assay; higher well number indicates higher activity
Text: as §1

whole complement = test: Complement Level Reduction Test (in vivo activity, guinea pig); conditions: 200 mg/kg
Text: An active inhibitor protects C2 from C1 and C4; (ii) Test, Code 035 (C3-C9 inhibitor) -- This test determines the ability of the late components of human complement (C3-C9) to lyse EAC 142 in the presence of appropriate dilutions of the test compound. An active inhibitor protects EAC 142 from lysis by human C3-C9; (iii) Test, Code 036 (C-Shunt inhibitor) -- In this test human erythrocytes rendered fragile are lysed in autologous serum via the shunt pathway activated by cobra venom factor in the presence of appropriate dilutions of the test compound. Inhibition of the shunt pathway results in failure of lysis; (iv) Forssman Vasculitis Test -- Here, the well known complement dependent lesion, Forssman vasculitis, is produced in guinea pigs by intradermal injection of rabbit anti-Forssman antiserum. The lesion is measured in terms of diameter, edema and hemorrhage and the extent to which a combined index of these is inhibited by prior intraperitoneal injection of the test compound at 200 mg/kg is then reported, unless otherwise stated; (v) Forssman Shock Test -- Lethal shock is produced in guinea pigs by an i.v. injection of anti-Forssman antiserum and the harmonic mean death time of treated guinea pigs is compared with that of simultaneous controls; (vi) Complement Level Reduction Test -- In this test, the above dosed guinea pigs, or others, are bled for serum and the complement level is determined in undiluted serum by the capillary tube method of U.S. Pat. No. 3,876,376 and compared to undosed control guinea pigs; and (vii) Cap 50 Test -- Here, appropriate amounts of the test compound are added to a pool of guinea pig serum in vitro, after which the undiluted serum capillary tube assay referred to above is run. The concentration of compound inhibiting 50 % is reported.
With reference to Table I, guinea pigs weighing about 300 g were dosed intravenously (i.v.) or intraperitoneally (i.p.) with 200 mg/kg of the test compound dissolved in saline and adjusted to pH 7-8. […] The serum was tested for whole complement using the capillary tube assay. Percent inhibition was calculated by comparison with simultaneous controls. The results appear in Table I together with results of tests, code 026, 035, 036, Cap 50, % inhibition and Forssman shock.

human serum = conditions: in vitro and in vivo, literature; cited from earlier work

## Cc1ccc(C(=O)Nc2ccc(S(=O)(=O)O)c3cc(S(=O)(=O)O)cc(S(=O)(=O)O)c23)cc1NC(=O)c1cccc(NC(=O)Nc2cccc(C(=O)Nc3cc(C(=O)Nc4ccc(S(=O)(=O)O)c5cc(S(=O)(=O)O)cc(S(=O)(=O)O)c45)ccc3C)c2)c1 [Suramin]
Complement system
  anticomplementary effect / complement inhibition: competitive inhibitor of the complement system
[1]
  use in the treatment of hereditary angioneurotic edema: used with success in the treatment of hereditary angioneurotic edema

## O=C(O)c1cc(NC(=O)c2cc(NC(=S)Nc3cc(S(=O)(=O)O)cc4cc(S(=O)(=O)O)cc(S(=O)(=O)O)c34)cc(C(=O)Nc3cc(C(=O)O)cc(C(=O)O)c3)c2)cc(C(=O)O)c1 [5,5'-{{5-[2-Thio-3-(3,6,8-trisulfo-1-naphthyl)ureido]-1,3-phenylene}bis(carbonylimino)}diisophthalic acid heptasodium salt]
Human C1
  C1 026 Wells: +5 Wells
[2]
  C-Late 035 Wells: N
Shunt pathway
  Shunt Inhibition 036 Wells: +1 Wells

## NCCCCCC(=O)O [epsilon-aminocaproic acid]
[1]
  use in the treatment of hereditary angioneurotic edema: used with success in the treatment of hereditary angioneurotic edema

## O=C(Nc1cc(S(=O)(=O)[O-])cc2cc(S(=O)(=O)[O-])cc(S(=O)(=O)[O-])c12)c1cc(NC(=S)Nc2cc(S(=O)(=O)[O-])cc3cc(S(=O)(=O)[O-])cc(S(=O)(=O)[O-])c23)cc(C(=O)Nc2cc(S(=O)(=O)[O-])cc3cc(S(=O)(=O)[O-])cc(S(=O)(=O)[O-])c23)c1.[Na+].[Na+].[Na+].[Na+].[Na+].[Na+].[Na+].[Na+].[Na+] [8-{3-[3,5-Bis(3,6,8-trisulfo-1-naphthylcarbamoyl)phenyl] -2-thioureido}-1,3,6-naphthalenetrisulfonic acid nonasodium salt]
[2]
  C-Late 035 Wells: +1 Wells
Whole complement; i.p., 30 min
  In Vivo Activity (Guinea Pig) % Inhibition, Intraperitoneal, 30 min: -50%
Whole complement; i.p., 60 min
  In Vivo Activity (Guinea Pig) % Inhibition, Intraperitoneal, 60 min: -57%
Whole complement; i.p., 120 min
  In Vivo Activity (Guinea Pig) % Inhibition, Intraperitoneal, 120 min: -74%
Whole complement; i.v., 2 min
  In Vivo Activity (Guinea Pig) % Inhibition, Intravenous, 2 min: -97%
Whole complement; i.v., 30 min
  In Vivo Activity (Guinea Pig) % Inhibition, Intravenous, 30 min: -79%
Whole complement; i.v., 120 min
  In Vivo Activity (Guinea Pig) % Inhibition, Intravenous, 120 min: -58%

## pentosan-poly-sulfoester
Human serum
  anticomplementary activity, reduction in the total hemolytic complement activity: anticomplementary activity on human serum both in vitro and in vivo

## NC[C@H]1CC[C@H](C(=O)O)CC1 [tranexamic acid]
[1]
  use in the treatment of hereditary angioneurotic edema: used with success in the treatment of hereditary angioneurotic edema

## heparin
Complement system
  anticomplementary effect / complement inhibition: reported to have an anticomplementary effect

## Nc1ccc2cc(S(=O)(=O)O)cc(O)c2c1N=Nc1ccc(NC(=O)Nc2ccc(N=Nc3c(N)ccc4cc(S(=O)(=O)O)cc(O)c34)c(S(=O)(=O)O)c2)cc1S(=O)(=O)O [chlorazol fast pink, 3,3'-ureylenebis-[6-(2-amino-8-hydroxy-6-sulfo-1-naphthylazo)]benzenesulfonic acid, tetrasodium salt]
Complement system
  anticomplementary effect / complement inhibition: reported to have an anticomplementary effect
